Reference: paper PMC11024192, “Dissolution and antioxidant potential of apigenin self nanoemulsifying drug delivery system (SNEDDS) for oral delivery” (Scientific Reports, 2024)
Several values for one entry are separate records, joined by “and”; a condition that tells them apart may be missing. Equal values may be shown once.

Legend:
[1] = parameters: method as in PMID 34084146; settings: cited from earlier work
Caco-2 cells = assay: Intracellular (cellular) antioxidant activity (CAA) assay, DCFH-DA/AAPH; format: cell-based; settings: apigenin 7 μg/mL final, ascorbic acid 0.01%w/v, mean ± SD; for AUC (area under the DCF fluorescence response curve over time): 1 h incubation, 600 µM AAPH; for CAA unit (%reduction): vs non-antioxidant treated control
Excerpt: The quantitative cellular antioxidant activity (CAA) assay is a useful method employed for determining the bioavailability of food antioxidants because it can account for several additional factors, such as cellular uptake and metabolism. The CAA assay uses a fluorescent probe (DCFH-DA) to monitor the inhibition of peroxyl radical-induced oxidation inside the cell. The ester form (DCFH-DA) is nonionic and nonpolar and can be transported across the cell membrane. Inside the cell, DCFH-DA is deacetylated by endogenous cellular esterase and left in its oxidizable DCFH form. Once the free radical generator AAPH is added to the system, peroxyl radicals begin to form. The addition of antioxidants that can enter the cell can compete with and quench the radicals, preventing DCFH from being oxidized to form DCF (fluorescent). The CAA unit takes into account the relative areas under the curves of the samples compared to the control. Caco-2 cells, intestinal barrier models, are an appropriate model for assessing the antioxidant activity, especially for the phenolic compound[21] being used in this study.
The quantitative CAA of SNEDDS formulations GTP2575 and GTP3070 was evaluated in Caco-2 cells modified from the study of Kellett et al.[21]. Caco-2 cells were cultured in advanced DMEM supplemented with 10% endotoxin-free, heat-inactivated FBS, 1% L-glutamine, 1% penicillin (10,000 U/mL), and 1% streptomycin (10,000 μg/mL). Each test sample of SNEDDS was prepared by diluting with serum-free culture media to obtain an equivalent concentration of apigenin (14 µg/mL). The working solution (25 μM DCFH-DA in serum-free culture media) was prepared from a 12.5 mM DCFH-DA stock solution in MeOH. A 600 μM AAPH solution was prepared from a 60 mM AAPH stock solution in HBSS before experimental use. After Caco-2 cells reached confluence in a T-25 culture flask, the cells were washed twice with sterile PBS (pH 7.4) and dissociated from the surface using trypsin–EDTA. The cells were seeded in 96-well, black, flat-bottom tissue culture-treated dishes (Corning Costar, ME, USA). A density of 60,000 cells in 100 µL of culture media was added to each well and incubated until they reached confluency (24 h). The growth medium was removed after confluence was achieved, and the cells were then washed with PBS to remove any nonadherent and dead cells.
At the time of the experiment, 50 µL of 25 μM DCFH-DA working solution was added to each well, followed by 50 µL of a test sample. As a result, the final concentration of apigenin of 7 μg/mL in each well was obtained. As a control, 50 µL of DCFH-DA working solution and serum-free culture media (no sample included) were utilized. Once the DCFH-DA and test samples were added, the cells were placed in the incubator for 1 h at 37 °C. After 1 h, the cells were washed with PBS 3 times to ensure that any antioxidant effect observed later in the assay was due only to the compounds internalized by the cells. […] The cells were then immediately placed in a BMG CLARIOstar (BMG LABTECH, NC, USA), where real-time fluorescence was measured initially and every five minutes for 1 h (a total of 13 readings were taken). The fluorescence was measured at an excitation wavelength of 485 nm and an emission wavelength of 538 nm. The antioxidant activity of test samples was quantified by evaluating the percent reduction in fluorescence. […] The percent reduction, or the CAA unit, was calculated using Eq. (3). The samples were evaluated in triplicate and reported as the mean ± SD. […]

[2] = In vitro dissolution profile (apparatus type II, HPMC capsules) and release kinetics fitting; format: physicochemical; settings: 37 °C, 100 rpm, 5 mg apigenin in HPMC capsule
Experimental: The apigenin-loaded SNEDDS formulations GTP2575 and GTP3070 were selected for evaluating the in vitro dissolution because both formulations offered nearly 100% transmittance, an appropriate size with a narrow size distribution, a quick self-emulsification time, and great drug loading and encapsulation efficiency. […] Therefore, formulations GTP2575 and GTP3070 were preferred for in vitro dissolution study.
Dissolution was performed by a dissolution apparatus type II (a paddle) (Vision G2 Elite 8, Hanson, CA, USA). The SNEDDS formulations GTP2575 and GTP3070 containing 5 mg of apigenin were added to HPMC capsules number 00. An equivalent 5 mg of apigenin coarse powder added to HPMC capsules using lactose monohydrate as the filler was the control. Each capsule was placed inside a sinker loaded with 900 mL of dissolution media (buffer solutions pH 1.2, 4.5, and 6.8) at 37.0 ± 0.5 °C with a rotating speed of 100 rpm. During the study, 5 mL of dissolution medium was removed at predetermined time intervals (10, 15, 20, 30, 45, 60, 90, and 120 min), and 5 mL of fresh buffer solution was replaced. The amount of apigenin dissolved in the dissolution media was determined by HPLC. The dissolution experiment was carried out in triplicate. The dissolution profile was plotted with the percent apigenin dissolved on the y-axis and time on the x-axis. The dissolution profiles of GTP2575, GTP3070, and the coarse powder in the dissolution media buffer pH 1.2, 4.5, and 6.8 were compared. The dissolution results of the SNEDDS formulations GTP2575 and GTP3070 in pH 1.2 buffer solution were fitted by determining the R^2 with various kinetic models such as zero-order (a constant release rate independent of the drug remaining), first-order (an exponential decay of the drug remaining), Higuchi (matrix systems where drug release is controlled by diffusion), Hixon–Crowell (release based on the change in the cube root of the drug remaining), and Korsmeyer–Peppas (an extension of the […] model that incorporates a release exponent). […]

[3] = Solubility of apigenin in oils, surfactants and cosurfactants (excess drug, shaking water bath, HPLC); format: physicochemical; settings: 48 h, mean ± SD, n = 3
Excerpt: To formulate the SNEDDS, the selection of suitable oils, surfactants, and cosurfactants is important to enhance the solubility of actives and the loading efficiency. The components used in SNEDDS should maximize drug solubility and have good miscibility with each other to obtain a stable formulation. Therefore, the solubility of apigenin was firstly determined in the oils (Gelucire 44/14, Myritol 318, sunflower oil, and corn oil), surfactants (PEG-40 hydrogenated castor oil, Tween 20, Tween 80, Span 20, and Span 80), and cosurfactants (PEG 400 and Transcutol HP). Briefly, an excess amount of apigenin was weighed into 0.5 g of each excipient. The obtained mixtures were mixed using a vortex mixer and kept in a shaking water bath at 100 rpm and 37 ± 2 °C for 48 h. After equilibrium was achieved, the equilibrated sample was centrifuged at 8000 rpm for 20 min. The excess undissolved apigenin was discarded, and the supernatant was collected. The concentration of apigenin was analyzed by the high-performance liquid chromatography (HPLC). The experiments were performed in triplicate. The excipient in which apigenin was the most soluble was selected to form the pseudoternary phase diagram. The amount of apigenin was quantified by a validated reversed-phase HPLC (RP-HPLC) equipped with a UV/VIS detector (SHIMADZU Series 20AD, Japan). Apigenin was separated on a C18 column (Promosil C18, 4.5 × 250 mm, 5 µm) using methanol, acetonitrile, acetic acid, orthophosphoric acid, and water at a ratio of 40:20:0.05:0.05:40 by volume as the mobile phase at a flow rate of 0.6 mL/min with a detection wavelength of 352 nm. The column temperature was set to 30 °C. The standard curve of apigenin was linear in the concentration range of 0.05–40 µg/mL. Good linearity with a coefficient of determination (R^2) > 0.999 was achieved. The relative standard deviation (%RSD) of intraday and interday precision of the assay method for apigenin was below 6%, and the accuracy was within the range of 95–105%. The limit of quantification and limit of detection were 0.64 and 0.21 µg/mL, respectively.

| Compound | Biopharmaceutical classification system (BCS) class [1] | Solubility in water [1] | AUC (area under the DCF fluorescence response curve over time) (Caco-2 cells; n = 3) | CAA unit (%reduction) (Caco-2 cells; n = 3, listed as Apigenin coarse powder) | CAA unit (%reduction) (Caco-2 cells; n = 3, listed as apigenin coarse powder) | percent apigenin dissolved at 120 min ([2]; buffer pH 1.2, 900 mL) | percent apigenin dissolved at 120 min ([2]; buffer pH 4.5, 900 mL) | percent apigenin dissolved at 120 min ([2]; buffer pH 6.8, 900 mL) | Solubility at 37 °C ([3]; in Gelucire 44/14 (oil)) | Solubility at 37 °C ([3]; in Myritol 318 (oil)) | Solubility at 37 °C ([3]; in PEG 400 (cosurfactant)) | Solubility at 37 °C ([3]; in PEG-40 hydrogenated castor oil (surfactant)) | Solubility at 37 °C ([3]; in Span 20 (surfactant)) | Solubility at 37 °C ([3]; in Span 80 (surfactant)) | Solubility at 37 °C ([3]; in Transcutol HP (cosurfactant)) | Solubility at 37 °C ([3]; in Tween 20 (surfactant)) | Solubility at 37 °C ([3]; in Tween 80 (surfactant)) | Solubility at 37 °C ([3]; in corn oil) | Solubility at 37 °C ([3]; in sunflower oil) | CAA unit (%reduction) (Caco-2 cells; n = 3) |
| --- | --- | --- | --- | --- | --- | --- | --- | --- | --- | --- | --- | --- | --- | --- | --- | --- | --- | --- | --- | --- |
| O=c1cc(-c2ccc(O)cc2)oc2cc(O)cc(O)c12 [apigenin] | Class II | insoluble | 9,951,772 ± 1,061,408 | 12.70 ± 5.14 % | 12.70% and 12.70 ± 5.14% | 5% | 2% | 2% | 7.77 ± 0.63 mg/g and 7.7686 ± 0.6332 mg/g | 0.0003 ± 0.0000 mg/g | 27.6349 ± 0.9833 mg/g | 11.3645 ± 0.2659 mg/g | 0.0013 ± 0.0000 mg/g | 0.0007 ± 0.0001 mg/g | 20.9544 ± 0.8715 mg/g | 20.9996 ± 1.1273 mg/g | 22.5921 ± 0.0290 mg/g | 0.0003 ± 0.0000 mg/g | 0.0004 ± 0.0000 mg/g |  |
| O=C1O[C@H]([C@@H](O)CO)C(O)=C1O [ascorbic acid] |  |  | 8,959,896 ± 1,441,639 |  |  |  |  |  |  |  |  |  |  |  |  |  |  |  |  | 21.61 ± 7.41% |
